Earlier results, collected in patent US12016331B2, “Microemulsions and uses thereof as delivery systems” (ARCHER DANIELS MIDLAND COMPANY, priority 2012, dated 2024).

Row | SMILES | LD 50 value, dermal toxicity
1 | CC(O)C(=O)O (centres unmarked) [lactic acid] | greater than 3000 mg/Kg
2 | CCC(=O)O [propionic acid] | 500 mg/kg
